According to paper PMC7367283, “A PIP2 substitute mediates voltage sensor-pore coupling in KCNQ activation” (Communications Biology, 2020):
Where “and” joins values, the source holds several entries; their conditions need not be identical. Equal entries are not always repeated.

Target: KCNQ2/KCNQ3* (Homo sapiens, UniProt O43525+O43526, A315T)
Experiment: Two-electrode voltage clamp of KCNQ2+KCNQ3* in Xenopus oocytes
Type: cell-based
Settings: Q2/Q3*, individual oocytes
Text: KCNQ2 and KCNQ3 form a channel complex that carries M currents in neurons. Similar to KCNQ1, these KCNQ subunits require PIP2 for voltage-dependent activation. KCNQ2 alone can express functional channels in Xenopus oocytes, while KCNQ3 alone cannot. However, a single mutation, A315T, allows KCNQ3 to functionally express in Xenopus oocytes. We examined the effects of CP1 on KCNQ2, KCNQ3 with mutation A315T (denoted as KCNQ3*), KCNQ2+KCNQ3, and KCNQ2+KCNQ3* expressed in Xenopus oocytes (Fig. 5a). Similar to the effects on KCNQ1 and IKs channels, CP1 changed the amplitude of currents (Fig. 5b), shifted the G–V relation to more negative voltages (Fig. 5c), and slowed the deactivation kinetics (Fig. 5d) for all of these KCNQ channels. These CP1 effects were relatively small on KCNQ2 as compared with those on other KCNQ channels, and the effects on KCNQ2/KCNQ3* and KCNQ2/KCNQ3 complexes were closer to those on KCNQ2 alone.
Fig. 5 Subtype selectivity of CP1 on KCNQ channels. a Current traces of KCNQ channels as indicated in the absence and the presence of 10 µM CP1. […]
The whole-oocyte ionic currents were recorded with a GeneClamp 500B amplifier (Axon Instruments, CA) or iTEV90 amplifier (HEKA, Germany) and then sampled at 1 kHz and low-pass-filtered at 2 kHz. […] The Kir1.1 current was recorded with a high K^+ bath solution containing (in mM) 96 KCl, 4 NaCl, 1 CaCl2, 2 MgCl2, and 10 HEPES, pH 7.3–7.4. The HCN4 current was recorded in ND66 solution containing (in mM) 66 NaCl, 32 KCl, 1.8 CaCl2, 1 MgCl2, and 5 HEPES, pH 7.6. All the other potassium channels were recorded in ND96 solution. The currents of CaV1.2 channel were recorded in 40 mM Ba^2+ bath solution containing (in mM) 40 Ba(OH)2, 50 TEA-OH, 2 KOH, and 5 HEPES, adjusted to pH 7.4 with methanesulfonic acid. […] The HCN4 currents were recorded by a test pulse between −30 and −140 mV in 10-mV step from a holding potential of −30 mV. […]

O=S(=O)([O-])Oc1c(-c2sc3c(ccc4cccc(Cl)c43)c2OS(=O)(=O)[O-])[nH]c2ccc(Br)cc12.[Na+].[Na+] [CP1, DISODIUM 5-BROMO-2-[9-CHLORO-3-(SULFONATOOXY) NAPHTHO [1,2-B] THIEN-2-YL]-1H-INDOL-3-YL SULFATE]
outward current (Icp1/Ictrl) (10 µM CP1, at −10 mV): 1.1575 and 0.9892 and 1.0474 and 1.088
∆V1/2 (10 µM CP1): 15.9435 mV and 15.3238 mV and 21.3532 mV and 15.8237 mV
τ deact at -120 mV (10 µM CP1 treated): 0.0814 s and 0.0836 s and 0.1825 s and 0.1031 s and 0.1951 s
